Common to all, as to assay: NCI anticancer screen, dose series, 48 h
For assay [1], the system named is SN12C renal.
The test system of assay [2] is NCI-H460 lung.
Assay [3] deals with OVCAR-8 ovarian.
In assay [4] the test system is HOP-92 NSCLC.
The test system of assay [5] is UACC-257 melanoma.
Assay [6] deals with SK-MEL-2 melanoma.
In assay [7] the test system is DU-145 prostate.
The subject of assay [8] is MCF7 breast.
Assay [9] has as its system NCI-H522 lung.
Assay [10] has as its system SR leukemia.

Consider 30 compounds from PubChem BioAssay (NCI).

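Step 1: Grow cells in 96-well plates. Step 2: Expose to compound for 48 hours at 5 concentrations. Step 3: Interpolate endpoints linearly; if unreached, use highest concentration. Here, GI50 denotes the concentration required for 50% inhibition of growth. Definition used: TGI = concentration required for complete inhibition of growth.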

On to `O=C(Nc1ccc(Cl)cc1C(=O)O)c1ccc([N+](=O)[O-])cc1`, for which the TGI in [1] was more than 100 µM; in [2], 45.7 µM; in assay [3], more than 100 µM; in assay [4], 22.6 µM; in assay [5] it was 48 µM; in assay [6], 16.9 µM.
For the compound `COc1ccccc1/C=C\C(=O)C1COCN1` (stereo not drawn), the TGI is 35.1 µM in assay [1]; more than 100 µM in assay [2]; 30.6 µM in assay [3]; 35.6 µM in assay [7]; 36.8 µM in assay [8]; 34 µM in [5]. Further, the TGI in [6] worked out at 56.7 µM; in assay [9], 36.1 µM.
With `CC(C)COC1Sc2ccccc2S1`, the TGI in assay [1] was 36.2 µM; in assay [2], 24.6 µM; in [3] it was more than 100 µM; in [4] it was 28.1 µM.
Regarding `CCOC(=N)CC(=O)Nc1ccccc1`, the TGI is more than 46.4 µM in [1]; more than 46.4 µM in assay [2]; more than 21.5 µM in assay [3]; more than 69.1 µM in [10]; more than 46.4 µM in assay [5]; more than 31.6 µM in assay [6]. Besides, the TGI in [9] is more than 100 µM.
`N#C/C(=C1\OC(=N)C(c2ccccc2)C1=O)c1ccccc1` (stereo not drawn): the TGI in assay [1] was more than 81.6 µM; in assay [2] it was more than 100 µM; in assay [3] it was more than 89.2 µM; in assay [4] it was more than 71.3 µM; in assay [5] it was 59.3 µM; in assay [6] it was more than 100 µM. Further, the TGI in assay [9] is 22.2 µM.
For `C#CC1(O)C(COP(=O)(O)OCC2OC(n3cc(F)c(=O)[nH]c3=O)CC2O)OC(n2ccc(N)nc2=O)C1O` (stereo not drawn), the GI50 was less than 0.01 µM in assay [1]; less than 0.01 µM in assay [2]; less than 0.01 µM in assay [3]; less than 0.01 µM in [7]; 0.196 µM in [4]; less than 0.01 µM in assay [8]. For the same compound, the results for the GI50 in assay [5], in [6] and in assay [9] were 0.114 µM, 0.0552 µM and less than 0.01 µM, respectively. Moreover, the TGI in [2] is more than 21.5 µM; in [7] it was more than 100 µM; in [4], more than 46.4 µM; in assay [8], more than 100 µM; in [5], more than 23.1 µM; in assay [6], 5.78 µM. Besides, in assay [9], the TGI was more than 100 µM.
Take `C[N+](C)(C)c1cc[c]([Sn]([c]2ccc([N+](C)(C)C)cc2)([c]2ccc([N+](C)(C)C)cc2)[c]2ccc([N+](C)(C)C)cc2)cc1`: the GI50 in assay [1], in assay [2], in assay [3], in assay [10], in assay [4] and in [5] was more than 100 µM in each case. The GI50 in assay [6] and in [9] was more than 100 µM each time. Besides, the TGI in assay [1], in assay [2], in [3], in assay [10], in [4] and in assay [5] was more than 100 µM throughout. Also, the TGI in assay [6] and in assay [9] was more than 100 µM in each case.
Regarding `CC1C=CC(C(N)C(=O)O)O1` (stereo not drawn), the TGI in assay [1], in assay [2], in assay [3], in assay [10], in [4] and in [6] was more than 100 µM throughout. The same compound registered a TGI in assay [9] of more than 100 µM.
As for `CC1=CP(=O)(c2ccccc2)C=C(C)C1=C(Cl)Cl` (stereo not drawn), the TGI was 81.8 µM in assay [1], 59.1 µM in assay [2], more than 100 µM in assay [3] and 7.23 µM in assay [9].
As for `O=C(CC1C(=O)Nc2ccccc2S1(=O)=O)Nc1ccc(Cl)cc1` (stereo not drawn), the TGI in [1] was more than 100 µM; in assay [2] it was more than 100 µM; in [3], more than 100 µM; in assay [10], 30.1 µM; in [4] it was 44.5 µM; in assay [5], 91.6 µM. In addition, the TGI came out at 65.3 µM in [6] and 36.4 µM in assay [9].
In the case of `O=C(N/C(=C\c1ccccc1O)c1nc2ccccc2[nH]1)c1ccccc1`, the TGI in [1], in assay [2], in [3], in assay [4], in assay [5] and in assay [6] was more than 100 µM in each case. Besides, in assay [9], the TGI is more than 100 µM.
As to `COc1cc2ncnc(Nc3ccc(Oc4ccnc(C)c4)c(C)c3)c2cc1NC(=O)CC1CCSS1` (stereo not drawn), the GI50 in assay [1] was 1.5 µM; in [3] it was 2.19 µM; in assay [7], 1.44 µM; in assay [10] it was 0.365 µM; in [4], 3.75 µM; in assay [5], 1.02 µM. The GI50 in assay [6] was 0.904 µM; in [9] it was 0.861 µM. The TGI in [1] is more than 50 µM; in assay [3], more than 50 µM; in assay [7] it was 6.31 µM; in assay [10], 2.99 µM; in assay [4] it was 23.1 µM; in assay [5] it was 2.35 µM. Also, the figures for the TGI in assay [6] and in assay [9] were 1.91 µM and 2.19 µM, respectively.
As to `NCCCNc1nc2ccccc2c2c(=O)c3cccc(Cl)c3sc12`, the GI50 is 1.52 µM in assay [1]; 1.74 µM in assay [7]; 0.606 µM in [10]; 1.19 µM in assay [4]; 1.88 µM in assay [6]; 1.76 µM in assay [9]. Besides, the TGI in [1] stood at 3.05 µM; in assay [7], 3.46 µM; in assay [10] it was 2.99 µM; in [4], 2.63 µM; in assay [6], 3.81 µM; in [9], 3.6 µM.
Regarding `CCCCCCCCCCCCN=C(N)c1ccc(N2CCN(c3ccc(C(N)=NCCCCCCCCCCCC)cc3)CC2)cc1`, the GI50 in assay [1] is 8.99 µM; in [2] it was 13.8 µM; in [3], 11.4 µM; in assay [7], 3.57 µM; in assay [10], 3.8 µM; in assay [4], 0.614 µM. The values for the GI50 in assay [5], in [6] and in assay [9] were 26.1 µM, 17.5 µM and 3.42 µM, respectively. Besides, the TGI is 18.7 µM in assay [1]; more than 50 µM in [2]; 40.1 µM in assay [3]; 14.3 µM in [7]; more than 50 µM in [10]; 2.86 µM in assay [4]. Besides, the values for the TGI in [5], in [6] and in assay [9] were more than 50 µM, more than 50 µM and 31.2 µM, respectively.
In the case of `CCCCNC(=S)OCCC(C)CCCC(C)C` (stereo not drawn), the TGI in assay [1], in assay [2], in assay [3], in assay [10], in assay [5] and in [6] was more than 100 µM throughout.
Take `COc1ccc(O)cc1C(O)c1ccccc1` (stereo not drawn): the TGI in assay [1], in [2], in [3], in assay [4], in assay [5] and in [6] was more than 100 µM throughout. In assay [9], the TGI was more than 100 µM.
Consider `Nc1nc2c(-c3ccc([N+](=O)[O-])cc3)nnn2c2ccccc12`, for which the TGI in assay [1], in assay [2], in [3], in assay [4] and in [6] was more than 100 µM throughout.
In the case of `O=C(N=c1nc(NC(=O)c2ccccc2)ss1)c1ccccc1`, the TGI in assay [1] is 66.6 µM; in assay [2], 39.7 µM; in assay [3] it was 82.8 µM; in [10], 75.4 µM; in assay [5], 48.1 µM; in assay [6], more than 100 µM. The same compound yielded a TGI in assay [9] of 42.4 µM.
In the case of `CC(=O)NNc1nc(C)c(C(=O)NNC(=O)C(=O)Nc2c([N+](=O)[O-])ccc(C)c2C)s1`, the TGI in assay [1], in assay [2], in assay [3], in assay [10], in [4] and in [5] was more than 100 µM in each case. Besides, the TGI in assay [6] and in [9] was more than 100 µM throughout.
As to `COc1ccc(/C=C/C(=O)c2c(-c3ccccc3)nn(C)c(=O)c2N2CCOCC2)cc1`, the TGI in [1], in [2], in [3], in assay [4] and in [9] was more than 100 µM in each case.
Turning to `c1ccc2c(c1)Cc1c(Cc3csc4ccccc34)ccc3cccc-2c13`, the TGI in assay [1], in [2], in assay [3], in assay [4], in assay [5] and in [6] was more than 100 µM each time. This compound also displayed a TGI in assay [9] of more than 100 µM.
For the compound `CCOC(=O)c1c(C)nc2c(c1N)/C(=C/c1ccccn1)C(=O)N2Cc1ccccc1`, the GI50 in assay [1] is 1.15 µM; in assay [2], 1.17 µM; in assay [3], 1.65 µM; in assay [10] it was 1.37 µM; in assay [4], 0.903 µM; in [8] it was 1.38 µM. Besides, the GI50 in [6] was 1.16 µM; in [9], 1.06 µM. Also, the TGI in assay [1] is 3.09 µM; in assay [2] it was 2.8 µM; in [3], more than 50 µM; in assay [10], more than 50 µM; in assay [4], 1.86 µM; in [8], 4.13 µM. Moreover, the results for the TGI in [6] and in [9] were 3.01 µM and 2.89 µM, respectively.
On to `COCCc1n(Cc2ccc3ccccc3c2)c2ccccc2[n+]1Cc1ccc2ccccc2c1`, for which the GI50 was 1.06 µM in assay [7], 0.214 µM in assay [4] and 0.456 µM in [5]. Also, the values for the TGI in assay [7], in assay [4] and in [5] were 2.33 µM, 1.13 µM and 1.77 µM, respectively.
For `COc1ccc2c(c1)/C(=C\c1c(-c3cc(OC)ccc3OC)nc3sccn13)C(=O)N2`, the GI50 in assay [2] is 4.39 µM; in [4], 1.76 µM; in [5] it was 2.17 µM; in assay [6], 1.77 µM. Also, the TGI in [2] is more than 100 µM; in [4], 3.47 µM; in assay [5] it was 4.43 µM; in assay [6], 4.2 µM.
As for `Cc1ccc(/C=C/C(=O)c2sc(-n3nc(-c4ccccc4)cc3-c3ccccc3)nc2C)cc1`, the TGI in assay [1], in [2], in [3], in assay [4], in [5] and in assay [6] was more than 100 µM throughout. The same compound gave a TGI in assay [9] of more than 100 µM.
Take `O=C(CCC(=O)Nc1cccc(C(F)(F)F)c1)CC(=O)c1ccc2ccccc2c1`: the TGI in assay [1], in [2], in [3], in assay [4], in assay [5] and in [6] was more than 100 µM throughout. Further, in [9], the TGI was more than 100 µM.
Consider `COc1cc(/C=C(\NC(=O)c2ccccc2)c2nc3ncncc3[nH]2)cc(OC)c1OC`, for which the TGI in assay [1], in assay [3], in [10], in [4], in assay [6] and in [9] was more than 100 µM each time.
`NS(=O)(=O)c1ccc(NC(=O)C2C(=O)C(=O)N(c3ccc(S(N)(=O)=O)cc3)C2=O)cc1` (stereo not drawn): the TGI in assay [1], in [3], in [10], in assay [4], in [5] and in assay [6] was more than 100 µM in each case. In addition, in [9], the TGI is more than 100 µM.
Consider `C(=C\C(Sc1ccccc1)c1ccccc1)/NNC1=NC(c2ccccc2)C(c2ccccc2)=NN1` (stereo not drawn), for which the TGI is more than 100 µM in assay [1]; more than 100 µM in assay [2]; more than 100 µM in [3]; 77.7 µM in assay [10]; 80.7 µM in assay [4]; more than 100 µM in assay [5]. The TGI in assay [6] and in assay [9] was more than 100 µM throughout.
Turning to `CCc1cc2c(O)c(c1)Cc1cc(CC)cc(c1O)Cc1cc(CC)cc(c1O)Cc1cc(CC)cc(c1O)Cc1cc(CC)cc(c1O)Cc1cc(CC)cc(c1O)Cc1cc(CC)cc(c1O)C2`, the TGI in [1], in [2], in assay [3], in [4], in assay [5] and in assay [6] was more than 100 µM throughout. This compound registered a TGI in assay [9] of more than 100 µM.
